Test results as given in patent publication US12312332B2 (Merck Sharp & Dohme LLC., priority 2019, dated 2025).

Target: T1, human OX2R (Homo sapiens, UniProt O43614)
T1 construct: expressed in transfected cells; host or cells: Chinese hamster ovary (CHO) cells, kept under G418 selection
T1 sequence (O43614 1-444): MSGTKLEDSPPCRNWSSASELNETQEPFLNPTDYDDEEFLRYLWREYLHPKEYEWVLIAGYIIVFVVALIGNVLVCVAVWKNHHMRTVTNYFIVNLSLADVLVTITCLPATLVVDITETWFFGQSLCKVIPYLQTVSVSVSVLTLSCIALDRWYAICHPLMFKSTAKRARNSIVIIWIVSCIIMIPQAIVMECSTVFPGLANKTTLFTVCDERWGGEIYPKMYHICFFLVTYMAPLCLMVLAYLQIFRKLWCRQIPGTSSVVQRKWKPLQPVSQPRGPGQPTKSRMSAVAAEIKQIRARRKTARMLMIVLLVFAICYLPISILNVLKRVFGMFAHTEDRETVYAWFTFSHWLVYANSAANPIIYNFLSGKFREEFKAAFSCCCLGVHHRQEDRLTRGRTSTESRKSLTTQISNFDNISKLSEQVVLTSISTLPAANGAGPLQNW
Experiment: IPOne (IP-One) orexin receptor agonist assay in CHO cells expressing human OX2R
Type: cell-based
Conditions: for EC50: CHO cells expressing human OX2R, IP-One detection, 2 hours incubation, four parameter logistic fit, read-out: OX2R Potency, EC50; for % max agonist effect (Emax): human OX2R, percentage of sample raw value/mean max effect (reference compound at 1 uM with 100% activity)

SMILES: CS(=O)(=O)N[C@H]1CCN(c2nccc(O)c2F)[C@H]1CO[C@H]1CC[C@@H](c2ccccc2)CC1 [Example 117, N-((2R,3S)-1-(3-fluoro-4-hydroxypyridin-2-yl)-2-((((CIS)-4-phenylcyclohexyl)oxy)methyl)pyrrolidin-3-yl)methanesulfonamide]
- EC50: 0.58 nM
- % max agonist effect (Emax): 100.7%

SMILES: Cn1ccc(N2CC[C@H](NS(C)(=O)=O)[C@@H]2CO[C@H]2CC[C@@H](c3ccccc3)CC2)cc1=O [Example 118, N-((2R,3S)-1-(1-methyl-2-oxo-1,2-dihydropyridin-4-yl)-2-((((CIS)-4-phenylcyclohexyl)oxy)methyl)pyrrolidin-3-yl)methanesulfonamide]
- EC50: 33.2 nM
- % max agonist effect (Emax): 100.2%

SMILES: COc1cnc(N2CC[C@H](NS(C)(=O)=O)[C@@H]2CO[C@H]2CC[C@@H](c3ccccc3)CC2)cc1O [Example 119, N-((2R,3S)-1-(4-hydroxy-5-methoxypyridin-2-yl)-2-((((CIS)-4-phenylcyclohexyl)oxy)methyl)pyrrolidin-3-yl)methanesulfonamide]
- EC50: 35.8 nM
- % max agonist effect (Emax): 101.8%

SMILES: CS(=O)(=O)N[C@H]1CCN(c2nccc(O)c2Cl)[C@H]1CO[C@H]1CC[C@@H](c2ccccc2)CC1 [Example 120, N-((2R,3S)-1-(3-chloro-4-hydroxypyridin-2-yl)-2-((((CIS)-4-phenylcyclohexyl)oxy)methyl)pyrrolidin-3-yl)methanesulfonamide]
- EC50: 10.8 nM
- % max agonist effect (Emax): 100.5%

SMILES: CS(=O)(=O)N[C@H]1CCN(c2cnccc2C(F)F)[C@H]1CO[C@H]1CC[C@@H](c2ccccc2)CC1 [Example 121, N-((2R,3S)-1-(4-(difluoromethyl)pyridin-3-yl)-2-((((CIS)-4-phenylcyclohexyl)oxy)methyl)pyrrolidin-3-yl)methanesulfonamide]
- EC50: 16.9 nM
- % max agonist effect (Emax): 101.1%

SMILES: CS(=O)(=O)N[C@H]1CCN(c2cnccc2O)[C@H]1CO[C@H]1CC[C@@H](c2ccccc2)CC1 [Example 122, N-((2R,3S)-1-(4-hydroxypyridin-3-yl)-2-((((CIS)-4-phenylcyclohexyl)oxy)methyl)pyrrolidin-3-yl)methanesulfonamide]
- EC50: 38.3 nM
- % max agonist effect (Emax): 101%

SMILES: CS(=O)(=O)N[C@H]1CCN(c2cnccc2OCc2ccccc2)[C@H]1CO[C@H]1CC[C@@H](c2ccccc2)CC1 [Example 123, N-((2R,3S)-1-(4-(benzyloxy)pyridin-3-yl)-2-((((CIS)-4-phenylcyclohexyl)oxy)methyl)pyrrolidin-3-yl)methanesulfonamide]
- EC50: 755 nM
- % max agonist effect (Emax): 97.6%

SMILES: CS(=O)(=O)N[C@H]1CCN(c2ncccc2C(F)F)[C@H]1CO[C@H]1CC[C@@H](c2ccccc2)CC1 [Example 124, N-((2R,3S)-1-(3-(difluoromethyl)pyridin-2-yl)-2-((((CIS)-4-phenylcyclohexyl)oxy)methyl)pyrrolidin-3-yl)methanesulfonamide]
- EC50: 150 nM
- % max agonist effect (Emax): 100.2%

SMILES: Cc1cccnc1N1CC[C@H](NS(C)(=O)=O)[C@@H]1CO[C@H]1CC[C@@H](c2ccccc2)CC1 [Example 125, N-((2R,3S)-1-(3-methylpyridin-2-yl)-2-((((CIS)-4-phenylcyclohexyl)oxy)methyl)pyrrolidin-3-yl)methanesulfonamide]
- EC50: 59.2 nM
- % max agonist effect (Emax): 100%

SMILES: CS(=O)(=O)N[C@H]1CCN(c2ncccc2C(F)(F)F)[C@H]1CO[C@H]1CC[C@@H](c2ccccc2)CC1 [Example 126, N-((2R,3S)-2-((((CIS)-4-phenylcyclohexyl)oxy)methyl)-1-(3-(trifluoromethyl)pyridin-2-yl)pyrrolidin-3-yl)methanesulfonamide]
- EC50: 370 nM
- % max agonist effect (Emax): 100%

SMILES: CS(=O)(=O)N[C@H]1CCN(c2ncccc2OC(F)(F)F)[C@H]1CO[C@H]1CC[C@@H](c2ccccc2)CC1 [Example 127]
- EC50: 162 nM
- % max agonist effect (Emax): 100.7%

SMILES: COc1cncc(N2CC[C@H](NS(C)(=O)=O)[C@@H]2CO[C@H]2CC[C@@H](c3ccccc3)CC2)c1C [Example 128, N-((2R,3S)-1-(5-methoxy-4-methylpyridin-3-yl)-2-((((CIS)-4-phenylcyclohexyl)oxy)methyl)pyrrolidin-3-yl)methanesulfonamide]
- EC50: > 10000 nM
- % max agonist effect (Emax): 50.4%

SMILES: CS(=O)(=O)N[C@H]1CCN(c2cc(F)cnc2O)[C@H]1CO[C@H]1CC[C@@H](c2ccccc2)CC1 [Example 129, N-((2R,3S)-1-(5-fluoro-2-hydroxypyridin-3-yl)-2-((((CIS)-4-phenylcyclohexyl)oxy)methyl)pyrrolidin-3-yl)methanesulfonamide]
- EC50: 821 nM
- % max agonist effect (Emax): 99.7%

SMILES: CS(=O)(=O)N[C@H]1CCN(c2ccc(C(F)(F)F)cn2)[C@H]1CO[C@H]1CC[C@@H](c2ccccc2)CC1 [Example 130, N-((2R,3S)-2-((((CIS)-4-phenylcyclohexyl)oxy)methyl)-1-(5-(trifluoromethyl)pyridin-2-yl)pyrrolidin-3-yl)methanesulfonamide]
- EC50: 4000 nM
- % max agonist effect (Emax): 70.8%

SMILES: CS(=O)(=O)N[C@H]1CCN(c2ncccc2F)[C@H]1CO[C@H]1CC[C@@H](c2ccccc2)CC1 [Example 131, N-((2R,3S)-1-(3-fluoropyridin-2-yl)-2-((((CIS)-4-phenylcyclohexyl)oxy)methyl)pyrrolidin-3-yl)methanesulfonamide]
- EC50: 736 nM
- % max agonist effect (Emax): 98.8%

SMILES: CS(=O)(=O)N[C@H]1CCN(c2ccc(C#N)cn2)[C@H]1CO[C@H]1CC[C@@H](c2ccccc2)CC1 [Example 132, N-((2R,3S)-1-(5-cyanopyridin-2-yl)-2-((((CIS)-4-phenylcyclohexyl)oxy)methyl)pyrrolidin-3-yl)methanesulfonamide]
- EC50: > 10000 nM
- % max agonist effect (Emax): 75.3%

SMILES: CS(=O)(=O)N[C@H]1CCN(c2cncc(C#N)c2)[C@H]1CO[C@H]1CC[C@@H](c2ccccc2)CC1 [Example 133, N-((2R,3S)-1-(5-cyanopyridin-3-yl)-2-((((CIS)-4-phenylcyclohexyl)oxy)methyl)pyrrolidin-3-yl)methanesulfonamide]
- EC50: 993 nM
- % max agonist effect (Emax): 100.3%

SMILES: CS(=O)(=O)N[C@H]1CCN(c2ccc[n+]([O-])c2)[C@H]1CO[C@H]1CC[C@@H](c2ccccc2)CC1 [Example 134]
- EC50: 20.7 nM
- % max agonist effect (Emax): 101.7%

SMILES: CS(=O)(=O)N[C@H]1CCN(c2ncccc2O)[C@H]1CO[C@H]1CC[C@@H](c2ccccc2)CC1 [Example 135, N-((2R,3S)-1-(3-hydroxypyridin-2-yl)-2-((((CIS)-4-phenylcyclohexyl)oxy)methyl)pyrrolidin-3-yl)methanesulfonamide]
- % max agonist effect (Emax): 101.1%

SMILES: CS(=O)(=O)N[C@H]1CCN(c2ncccc2C#N)[C@H]1CO[C@H]1CC[C@@H](c2ccccc2)CC1 [Example 136, N-((2R,3S)-1-(3-cyanopyridin-2-yl)-2-((((CIS)-4-phenylcyclohexyl)oxy)methyl)pyrrolidin-3-yl)methanesulfonamide]
- EC50: 164 nM
- % max agonist effect (Emax): 100.6%

SMILES: CS(=O)(=O)N[C@H]1CCN(c2ncccc2O)[C@H]1CO[C@H]1CC[C@@H](c2ccccc2)CC1 [Example 137, N-((2R,3S)-1-(3-hydroxypyridin-2-yl)-2-((((CIS)-4-phenylcyclohexyl)oxy)methyl)pyrrolidin-3-yl)methanesulfonamide]
- % max agonist effect (Emax): 100.5%

SMILES: CS(=O)(=O)N[C@H]1CCN(c2cc(C#N)ccn2)[C@H]1CO[C@H]1CC[C@@H](c2ccccc2)CC1 [Example 138, N-((2R,3S)-1-(4-cyanopyridin-2-yl)-2-((((CIS)-4-phenylcyclohexyl)oxy)methyl)pyrrolidin-3-yl)methanesulfonamide]
- EC50: 72.1 nM
- % max agonist effect (Emax): 99.8%

SMILES: CS(=O)(=O)N[C@H]1CCN(c2cccc(C#N)n2)[C@H]1CO[C@H]1CC[C@@H](c2ccccc2)CC1 [Example 139, N-((2R,3S)-1-(6-cyanopyridin-2-yl)-2-((((CIS)-4-phenylcyclohexyl)oxy)methyl)pyrrolidin-3-yl)methanesulfonamide]
- EC50: 1400 nM
- % max agonist effect (Emax): 68.5%

SMILES: CS(=O)(=O)N[C@H]1CCN(c2cc(OC(F)F)c(F)cn2)[C@H]1CO[C@H]1CC[C@@H](c2ccccc2)CC1 [Example 140, N-((2R,3S)-1-(4-(difluoromethoxy)-5-fluoropyridin-2-yl)-2-((((CIS)-4-phenylcyclohexyl)oxy)methyl)pyrrolidin-3-yl)methanesulfonamide]
- EC50: 299 nM
- % max agonist effect (Emax): 98.8%

SMILES: COc1cccnc1N1CC[C@H](NS(C)(=O)=O)[C@@H]1CO[C@H]1CC[C@@H](c2ccccc2)CC1 [Example 141, N-((2R,3S)-1-(3-methoxypyridin-2-yl)-2-((((CIS)-4-phenylcyclohexyl)oxy)methyl)pyrrolidin-3-yl)methanesulfonamide]
- EC50: 7.1 nM
- % max agonist effect (Emax): 100.2%

SMILES: CS(=O)(=O)N[C@H]1CCN(c2cc(C(F)F)cc(C(F)F)n2)[C@H]1CO[C@H]1CC[C@@H](c2ccccc2)CC1 [Example 142, N-((2R,3S)-1-(4,6-bis(difluoromethyl)pyridin-2-yl)-2-((((CIS)-4-phenylcyclohexyl)oxy)methyl)pyrrolidin-3-yl)methanesulfonamide]
- EC50: > 10000 nM
- % max agonist effect (Emax): 15.8%
